The source of these data is patent US11440923B2, “Substituted macrocyclic indole derivatives” (Bayer Aktiengesellschaft, priority 2017, dated 2022).

Structures can show the parent of a compound that is named as a salt. Where two headings read alike, the source gives them in different places.

Holding throughout (assay type): cell-based
For data set [1], the system named is SUDHL5 cells. The data set can be described thus: Induction of caspase-3/7 activity in SUDHL5 cells (Assay 4). Here is the method: (§1) Induction of Caspase-3/7 Activity Upon Treatment of Cells with Selected Compounds
(§2) The BH3-domain of MCL-1 sequesters pro-apoptotic proteins, thereby inhibiting apoptosis. In contrast, MCL-1 inhibitors are expected to antagonize this effect leading to an increase in apoptosis, which can be determined by measuring the activity of caspase-3/7.
(§3) The activity of caspase-3/7 was determined in DLBCL (Diffuse large B-cell lymphoma) cell lines (SUDHL5 and SUDHL10) upon treatment with different compounds, using the Caspase-Glo® 3/7 reagent from Promega (G8092).
(§4) As a control, medium without cells was also added to the plate. Cells were incubated in a humidified incubator at 37° C. overnight.
(§5) Rim wells were excluded. The cells were incubated for 3 h hours in a humidified incubator at 37° C. After this incubation, 30 μL of Caspase-Glo® 3/7 reagent (Promega G8092) was added to each well using the Multidrop Combi Reagent Dispenser, followed by 1 h incubation at 37° C. Finally, luminescence was read at 0.1 ms, with a gain of 3000 using the PHERAstar FS microplate reader (BMG Labtech).
(§6) For the evaluation of the results, the background measured with “medium-only” was subtracted from all other values. Then, the values were normalized to DMSO-only treated cells (every value was divided by the mean of the DMSO control).

Data set [2] relates to SUDHL10 cells. The experiment in a line: Induction of caspase-3/7 activity in SUDHL10 cells (Assay 4). Here is the method:
as §1, §2, §3, §4, §5, §6

The subject of data set [3] is SUDHL5 cells. The data set can be described thus: Induction of cytotoxicity in SUDHL5 cells (Assay 6). As to conditions: 5 h, CellTiter-Glo, read-out: Cytotox SUDHL5 IC50 (median). As for the experimental part: (§7) Assay 6 Induction of Cytotoxicity Upon Treatment of Cells with Selected Compounds
(§8) In principle, compounds that induce apoptosis will concomitantly induce cell cytotoxicity. Therefore, cytotoxicity assays were run in parallel in SUDHL5 and SUDHL10 cells.
(§9) As a control, medium without cells was also added to the plate. Cells were incubated in a humidified incubator at 37° C. overnight. […] Rim wells were excluded. The cells were incubated for 5 h hours in a humidified incubator at 37° C. After this incubation, 30 μL of CellTiter-Glo® Luminescent Cell Viability reagent (Promega, G7573) was added to each well using the Multidrop Combi Reagent Dispenser, followed by 15 min incubation on a shaker at room temperature. Finally, luminescence was read at 0.1 ms, with a gain of 3000 using the PHERAstar FS microplate reader (BMG Labtech).
On the technique in general: In ATP-based viability assays light output follows the ATP content of the culture.

For data set [4], the system named is SUDHL5 cells. The data set can be described thus: Antiproliferation assay SUDHL5 (Assay 7). Here is the method:
(§10) Assessment of the Anti-Proliferative Effect of Compounds in Different Cell Lines
(§11) The impact of compounds on the proliferation of different cell lines was assessed using the CellTiter-Glo® Luminescent Cell Viability reagent from Promega (G7573).
(§12) In parallel, cells were plated in a reference (day 0) plate for time zero determination. Cells were incubated in a humidified incubator at 37° C. overnight.
(§13) Rim wells were excluded. The cells were incubated for 72 h hours in a humidified incubator at 37° C. The day 0 plate was measured by adding 30 μL/well of CTG solution (CellTiter-Glo® Luminescent Cell Viability reagent, Promega G7573) to time zero wells in the reference plate followed by a 10 minutes incubation and luminescence reading at 0.1 ms. using the PHERAstar FS microplate reader (BMG Labtech).
(§14) After 72 h incubation, the treated plates were measured in the same way as the day 0 plate mentioned above. The Bella DRC Master Sheet was used to calculate IC50s, with CI=day 0 values and C0=DMSO control values.

In another data set the test system is AMO-1 cells. The data set can be described thus: Antiproliferation assay AMO-1 (Assay 7). As for the experimental part: as §10, §11, §12, §13, §14
The subject of another data set is HMC-1-8 cells. The data set can be described thus: Antiproliferation assay HMC-1-8 (Assay 7). As for the experimental part:
as §10, §11, §12, §13, §14

The subject of data set [5] is SUDHL10 cells. The experiment in a line: Induction of cytotoxicity in SUDHL10 cells (Assay 6). As to conditions: 5 h, CellTiter-Glo; read-out: Cytotox SUDHL10 IC50 (median). Here is the method: as §7, §8, §9
Setting [6] is: 72 h, CellTiter-Glo, read-out: Antiproli HMC-1-8 IC50 median.
Setting [7] is: caspase-3/7 induction, 3 h; read-out: Caspase SUDHL5 EC50 (median).
Where [8] appears, read: caspase-3/7 induction, 3 h; read-out: Caspase SUDHL10 EC50 (median).
Setting [9] is: 72 h, CellTiter-Glo; read-out: Antiproli SUDHL5 IC50 (median).
Setting [10] is: 72 h, CellTiter-Glo; read-out: Antiproli AMO-1 IC50 median.
Where [11] appears, read: 72 h, CellTiter-Glo; read-out: Antiproli HMC-1-8 IC50 median.

In the case of `CCc1c2c(nn1C)C(CCN1CCN(C)CC1)OCCCCn1c(C(=O)O)c(CCCOc3cccc4cc(F)ccc34)c3ccc(Cl)c-2c31` (single isomer, unassigned; stereoisomer 4) [Example 73, (−)-4-chloro-3-ethyl-7-{3-[(6-fluoronaphthalen-1-yl)oxy]propyl}-2-methyl-15-[2-(4-methylpiperazin-1-yl)ethyl]-2,10,11,12,13,15-hexahydropyrazolo[4′,3′:9,10][1,6]oxazacycloundecino[8,7,6-hi]indole-8-carboxylic Acid (Stereoisomer 4)], the EC50 (usually the concentration at which the effect is half-maximal) in the data set on SUDHL5 cells [1] (Homo sapiens, SU-DHL-5, 3 h, caspase-3/7 induction, 3 h; read-out: Caspase SUDHL5 EC50 (median)) stood at 5.2 µM; in the data set on SUDHL10 cells [2] (Homo sapiens, SU-DHL10, 3 h, caspase-3/7 induction, 3 h; read-out: Caspase SUDHL10 EC50 (median)) it was 8.8 µM. For the same compound, the half-inhibitory concentration (IC50) (usually the midpoint of a concentration-inhibition curve) in the data set on SUDHL5 cells [3] (Homo sapiens, SU-DHL-5, 5 h) is 7.7 µM; in the data set on SUDHL5 cells [4] (Homo sapiens, SU-DHL-5, 72 h, 72 h, CellTiter-Glo; read-out: Antiproli SUDHL5 IC50 (median)) it was 6.1 µM; in the data set with AMO-1 cells (Homo sapiens, AMO1, 72 h, 72 h, CellTiter-Glo; read-out: Antiproli AMO-1 IC50 median) it was 3.84 µM; with HMC-1-8 cells (setting [6]) it was above 33 µM.
As to `CCc1c2c(nn1C)C(CCN1CCOCC1)OCC(F)(F)CCn1c(C(=O)O)c(CCCOc3cccc4cc(F)ccc34)c3ccc(Cl)c-2c31` (single isomer, unassigned; (-)) [Example 88, (−)-4-chloro-3-ethyl-12,12-difluoro-7-{3-[(6-fluoronaphthalen-1-yl)oxy]propyl}-2-methyl-15-[2-(morpholin-4-yl)ethyl]-2,10,11,12,13,15-hexahydropyrazolo[4′,3′:9,10][1,6]oxazacycloundecino[8,7,6-hi]indole-8-carboxylic Acid], the 50% effective concentration (EC50) with SUDHL5 cells [1] (setting [7]) was determined as 0.56 µM; in the data set on SUDHL10 cells [2] (setting [8]) it was 1.1 µM. Further, the IC50 in the data set on SUDHL5 cells [3] came out at 0.76 µM; in the data set with SUDHL5 cells [4] (setting [9]), 0.57 µM; in the data set on AMO-1 cells (setting [10]) it was 1.35 µM; in the data set with HMC-1-8 cells (setting [11]), 3.12 µM.
As for `CCc1c2c(nn1C)C(CCN1CCOCC1)N(C)CCCCn1c(C(=O)O)c(CCCOc3cccc4cc(F)ccc34)c3ccc(Cl)c-2c31` (single isomer, unassigned) [Example 95, 4-chloro-3-ethyl-7-{3-[(6-fluoronaphthalen-1-yl)oxy]propyl}-2,14-dimethyl-15-[2-(morpholin-4-yl)ethyl]-10,11,12,13,14,15-hexahydro-2H-pyrazolo[3′,4′:8,9][1,6]diazacycloundecino[10,11,1-hi]indole-8-carboxylic Acid], the half-maximal effective concentration (EC50) was determined as 1.5 µM with SUDHL5 cells [1] (setting [7]) and 3.5 µM in the data set on SUDHL10 cells [2] (setting [8]). Also, the IC50 stood at 2.2 µM in the data set on SUDHL5 cells [3], 2.3 µM with SUDHL5 cells [4] (setting [9]), 4.3 µM in the data set with AMO-1 cells (setting [10]) and 8.22 µM in the data set on HMC-1-8 cells (setting [11]).
For the compound `CCc1c2c(nn1C)C(CCN1CCOCC1)OCC(F)(F)CCn1c(C(=O)O)c(CCCOc3cccc4cc(F)ccc34)c3ccc(Cl)c-2c31` (stereo not drawn) [Example 86, 4-chloro-3-ethyl-12,12-difluoro-7-{3-[(6-fluoronaphthalen-1-yl)oxy]propyl}-2-methyl-15-[2-(morpholin-4-yl)ethyl]-2,10,11,12,13,15-hexahydropyrazolo[4′,3′:9,10][1,6]oxazacycloundecino[8,7,6-hi]indole-8-carboxylic Acid], the figures for the EC50 in the data set with SUDHL5 cells [1] (setting [7]) and with SUDHL10 cells [2] (setting [8]) were 0.1 µM and 0.14 µM, respectively. The IC50 in the data set with SUDHL5 cells [3] turned out to be 0.15 µM; in the data set with SUDHL5 cells [4] (setting [9]), 0.2 µM; with AMO-1 cells (setting [10]), 0.193 µM; in the data set with HMC-1-8 cells (setting [11]) it was 1.59 µM.
`CCc1c2c(nn1C)C(CCN1CCOCC1)OCC(F)(F)CCn1c(C(=O)O)c(CCCOc3cccc4cc(F)ccc34)c3ccc(Cl)c-2c31` (single isomer, unassigned; (-)) [Example 91, (−)-4-chloro-3-ethyl-12,12-difluoro-7-{3-[(6-fluoronaphthalen-1-yl)oxy]propyl}-2-methyl-15-[2-(morpholin-4-yl)ethyl]-2,10,11,12,13,15-hexahydropyrazolo[4′,3′:9,10][1,6]oxazacycloundecino[8,7,6-hi]indole-8-carboxylic Acid]: the EC50 with SUDHL5 cells [1] (setting [7]) is 0.66 µM; with SUDHL10 cells [2] (setting [8]), 0.89 µM. Besides, the IC50 with SUDHL5 cells [3] was 0.79 µM; in the data set with SUDHL5 cells [4] (setting [9]), 1 µM; in the data set on AMO-1 cells (setting [10]) it was 0.729 µM; with HMC-1-8 cells (setting [11]), 6.1 µM.
Regarding `CCc1c2c(nn1C)C(CCN1CCN(C)CC1)OCCCCn1c(C(=O)O)c(CCCOc3cccc4cc(F)ccc34)c3ccc(Cl)c-2c31` (single isomer, unassigned; stereoisomer 2) [Example 70, (+)-4-chloro-3-ethyl-7-{3-[(6-fluoronaphthalen-1-yl)oxy]propyl}-2-methyl-15-[2-(4-methylpiperazin-1-yl)ethyl]-2,10,11,12,13,15-hexahydropyrazolo[4′,3′:9,10][1,6]oxazacycloundecino[8,7,6-hi]indole-8-carboxylic Acid—N-ethylethanamine Salt (Stereoisomer 2)], the EC50 with SUDHL5 cells [1] (read-out: Caspase SUDHL5 EC50 (median); caspase-3/7 induction, 3 h) amounted to 13 µM; in the data set on SUDHL10 cells [2] (read-out: Caspase SUDHL10 EC50 (median); caspase-3/7 induction, 3 h) it was 14 µM. For the same compound, the IC50 in the data set with SUDHL10 cells [5] stood at 20 µM; with SUDHL5 cells [4] (read-out: Antiproli SUDHL5 IC50 (median); 72 h, CellTiter-Glo), 5 µM; with AMO-1 cells (read-out: Antiproli AMO-1 IC50 median; 72 h, CellTiter-Glo), 12.5 µM; in the data set with HMC-1-8 cells (read-out: Antiproli HMC-1-8 IC50 median; 72 h, CellTiter-Glo), 16.8 µM.
Take `CCc1c2c(nn1C)C(CCN1CCOCC1)OCC(F)(F)CCn1c(C(=O)O)c(CCCOc3cccc4cc(F)ccc34)c3ccc(Cl)c-2c31` (single isomer, unassigned; (+)) [Example 87, (+)-4-chloro-3-ethyl-12,12-difluoro-7-{3-[(6-fluoronaphthalen-1-yl)oxy]propyl}-2-methyl-15-[2-(morpholin-4-yl)ethyl]-2,10,11,12,13,15-hexahydropyrazolo[4′,3′:9,10][1,6]oxazacycloundecino[8,7,6-hi]indole-8-carboxylic Acid]: the EC50 in the data set with SUDHL5 cells [1] (setting [7]) turned out to be 0.058 µM; in the data set on SUDHL10 cells [2] (setting [8]), 0.084 µM. Also, the half-maximal inhibitory concentration (IC50) turned out to be 0.061 µM with SUDHL5 cells [3], 0.068 µM in the data set on SUDHL5 cells [4] (setting [9]), 0.0639 µM with AMO-1 cells (setting [10]) and 1.5 µM in the data set on HMC-1-8 cells (setting [11]).
Turning to `CCc1c2c(nn1C)C(CCN1CCOCC1)N(C)CCCCn1c(C(=O)O)c(CCCOc3cccc4ccccc34)c3ccc(Cl)c-2c31` (racemic) [Example 99, (rac)-4-chloro-3-ethyl-2,14-dimethyl-(15-rac)-[2-(morpholin-4-yl)ethyl]-7-{3-[(naphthalen-1-yl)oxy]propyl}-10,11,12,13,14,15-hexahydro-2H-pyrazolo[3′,4′:8,9][1,6]diazacycloundecino[10,11,1-hi]indole-8-carboxylic], the EC50 with SUDHL5 cells [1] (setting [7]) was determined as 0.076 µM; in the data set with SUDHL10 cells [2] (setting [8]), 0.059 µM. Besides, the concentration for half-maximal inhibition (IC50) was 0.1 µM in the data set on SUDHL5 cells [3], 0.071 µM in the data set on SUDHL5 cells [4] (setting [9]), 0.0863 µM in the data set with AMO-1 cells (setting [10]) and 1.86 µM in the data set on HMC-1-8 cells (setting [6]).
